The conditions of data set [1]: solubility in water / aqueous medium; cited from earlier work.
Data set [2] has as its system E. coli strain BW25113. As to the kind of experiment: Shake flask fermentation with candidate alcohol acyltransferases, isobutyl acetate production (GC-FID). Type of data set: cell-based. The following applies: strains identical except for the AAT; 20 g/L glucose, 30° C., 48 hours; ± standard deviation, three colonies. The text has this:
(§1) Each was cloned and transformed into E. coli strain BW25113 for analysis.
(§2) Three synthetic operons were constructed for gene expression to produce isobutyl acetate and isoamyl acetate (FIG. 5). All the plasmids were constructed to be under the regulation of PLlacO1 promoter. To produce isobutyl acetate, the first operon included four coding regions on a medium copy plasmid carrying kanamycin resistance marker in a transcriptional order ilvC-ilvD-alsS-AAT, with the ATT position being occupied by the coding region of one of the five exemplary acyltransferases (AAT) being analyzed. (FIG. 5(a)). The second operon included two coding regions on a high copy plasmid with an ampicillin resistance maker in a transcriptional order kivd-yqhD. For the synthesis of isoamyl acetate, the coding regions of leuA, leuB, leuC, and leuD involved in leucine biosynthesis were introduced in the first medium copy plasmid between alsS and AAT, and the same second high copy plasmid was used. (FIG. 5(b)).
(§3) We assessed the effect of each of the five exemplary acyltransferases on the production titers for isobutyl acetate and isoamyl acetate. […]
(§4) Shake flask fermentations were carried out for the recombinant strains. […] The produced medium-chain ester compounds were quantified by GC-FID (gas chromatography-flame ionization detector) analysis. […]

The subject of data set [3] is E. coli strain BW25113. As to the kind of experiment: Shake flask fermentation with candidate alcohol acyltransferases, isoamyl acetate production (GC-FID). Type of data set: cell-based. The following applies: strains identical except for the AAT, with leuABCD; 20 g/L glucose, 30° C., 48 hours.
From the text: as §1, §2, §3, §4

In brackets after ≈: the same amount, converted by molar mass.

Consider eight molecules from patent US10006064B2, “Biosynthetic pathways, recombinant cells, and methods” (REGENTS OF THE UNIVERSITY OF MINNESOTA, priority 2012, dated 2018).

One may read the Solubility as the dissolved amount per volume that the medium holds.

For `CCO` [Ethanol], in data set [1], the Solubility entry is “miscible”.
Regarding `CCOC(C)=O` [Ethyl acetate], the Solubility in data set [1] was 83000 µg/mL.
With `CCOC(=O)C(C)C` [Ethyl isobutyrate], the Solubility in data set [1] is 3200 µg/mL (≈ 27.5 mM).
As to `CCOC(=O)CC(C)C` [Ethyl isovalerate], the Solubility in data set [1] is 2000 µg/mL (≈ 15.4 mM).
On to `CC(C)COC(=O)C(C)C` [isobutyl isobutyrate], for which, in data set [1], the Solubility was 500 µg/mL (≈ 3.47 mM).
On to `CC(C)CC(=O)OC(=O)CC(C)C` [isovaleryl isovalerate], for which the Solubility result in data set [1] is recorded as “insoluble”.

B1: ATF1: Alcohol acetyltransferase from S. cerevisiae, expressed in recombinant E. coli BW25113 (protein, listed as Saccharomyces cerevisiae)
chain: MDLWKRLFEANPTKIRDKKIKNGHFISITNTINLSALMNEIDEKNQAPVQQECLKEMIQNGHARRMGSVEDLYVALNRQNLYRNFCTYGELSDYCTRDQLTLALREICLKNPTLLHIVLPTRWPNHENYYRSSEYYSRPHPVHDYISVLQELKLSGVVLNEQPEYSAVMKQILEEFKNSKGSYTAKIFKLTTTLTIPYFGPTGPSWRLICLPEEHTEKWKKFIFVSNHCMSDGRSSIHFFHDLRDELNNIKTPPKKLDYIFKYEEDYQLLRKLPEPIEKVIDFRPPYLFIPKSLLSGFIYNHLRFSSKGVCMRMDDVEKTDDVVTEIINISPTEFQAIKANIKSNIQGKCTITPFLHVCWFVSLHRWGKFFKPLNFEWLTDIFIPADCRSQLPDDDEMRQMYRYGANVGFIDFTPWISEFDMNDNKENFWPLIEHYHEVISEALRNKKHLHGLGFNIQGFVQKYVNIDKVMCDRAIGKRRGGTLLSNVGLFNQLEEPDAKYSICDLAFGQFQGSWHQAFSLGVCSTNVKGMNIVVASTKNVVGSQESLEELCSIYKALLLGP
For the molecule B1, the “isobutyl acetate production titer” value in data set [2] is 2.14 ± 0.17 g/L. Moreover, the “isoamyl acetate production titer” value in data set [3] is “highest production titers”.

B2: ATF2: Alcohol acetyltransferase from S. cerevisiae, expressed in recombinant E. coli BW25113 (protein, listed as Saccharomyces cerevisiae)
chain: MEDIEGYEPHITQELIDRGHARRMGHLENYFAVLSRQKMYSNFTVYAELNKGVNKRQLMLVLKVLLQKYSTLAHTIIPKHYPHHEAYYSSEEYLSKPFPQHDFIKVISHLEFDDLIMNNQPEYREVMEKISEQFKKDDFKVTNRLIELISPVIIPLGNPKRPNWRLICLPGKDTDGFETWKNFVYVTNHCGSDGVSGSNFFKDLALLFCKIEEKGFDYDEEFIEDQVIIDYDRDYTEISKLPKPITDRIDYKPALTSLPKFFLTTFIYEHCNFKTSSESTLTARYSPSSNANASYNYLLHFSTKQVEQIRAQIKKNVHDGCTLTPFIQACFLVALYRLDKLFTKSLLEYGFDVAIPSNARRFLPNDEELRDSYKYGSNVGGSHYAYLISSFDIPEGDNDKFWSLVEYYYDRFLESYDNGDHLIGLGVLQLDFIVENKNIDSLLANSYLHQQRGGAIISNTGLVSQDTTKPYYVRDLIFSQSAGALRFAFGLNVCSTNVNGMNMDMSVVQGTLRDRGEWESFCKLFYQTIGEFASL
On to B2, for which, in data set [2], the “isobutyl acetate production titer” value was 1.69 ± 0.46 g/L. Also, the “isoamyl acetate production titer” value in data set [3] is listed as “highest production titers”.
